Measurements published in patent US10487054B2, “Therapeutic compounds” (REGENTS OF THE UNIVERSITY OF MINNESOTA, priority 2017, dated 2019).

Target: T1, TOPK (Homo sapiens, UniProt Q96KB5)
T1 construct: endogenous in cells; host or cells: HaCaT
T1 sequence (Q96KB5 1-322): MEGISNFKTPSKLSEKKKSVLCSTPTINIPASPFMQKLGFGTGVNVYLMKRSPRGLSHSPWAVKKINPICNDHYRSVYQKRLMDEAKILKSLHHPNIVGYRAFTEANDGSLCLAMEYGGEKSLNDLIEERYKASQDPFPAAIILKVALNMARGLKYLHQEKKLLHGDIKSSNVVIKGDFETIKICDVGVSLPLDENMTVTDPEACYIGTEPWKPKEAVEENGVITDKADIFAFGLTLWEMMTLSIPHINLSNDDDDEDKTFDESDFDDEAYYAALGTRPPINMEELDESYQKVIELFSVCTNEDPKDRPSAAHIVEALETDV
Test: Pull-down assay with HaCaT cell lysates
Type: binding
Details: HaCaT cell lysates 500 μg, Western blot
Protocol: Active TOPK (200 ng) was incubated with different concentrations of ATP (0, 10 or 100 μM) and then mixed with compound 1-conjugated Sepharose 4B beads or Sepharose 4B beads. Proteins were pulled down and analyzed by Western blot. Data are representative of 3 independent experiments that gave similar results. FIGS. 2C and 2D show compound 1 binds to either TOPK (2C) or MEK1/2 (2D) ex vivo. Lysates from HaCaT cells (500 μg) were incubated with compound 1-conjugated Sepharose 4B beads or Sepharose 4B beads alone and the pulled-down proteins were analyzed by Western blot. Data are representative of 3 independent experiments that gave similar results. FIGS. 2E and 2F show compound 1 inhibits TOPK kinase (2E) activity but not MEK1 kinase (2F) activity in vitro. Active TOPK (200 ng) was mixed with compound 1 (0, 0.5, 1, 3, or 5 μM) or HI-032 (TOPK inhibitor, 10 μM) and then incubated with a [γ-^32P] ATP mixture. Similarly, MEK1 (200 ng) was mixed with compound 1 (0, 0.5, 1, 3, 5, or 10 μM) or PD098059 (MEK1 inhibitor, 5 μM) and then incubated with a [γ-^32P] ATP mixture. For 2E and 2F, the results are visualized by autoradiography and Coomassie blue staining serves as a loading control. Data are representative of 3 independent experiments that gave similar results. […]

O=C1Nc2ccc(C34CC5CC(CC(C5)C3)C4)cc2C1=NO [compound 1, 5-(adamantan-1-yl)-3-(hydroxyimino)indolin-2-one]
binding of TOPK to compound-conjugated beads: detected in the compound 1-conjugated beads group but not in the beads only group
